{"source": "patent US20030005927A1", "about": "“Process and device for inhalation of particulate medicaments” (priority 1996, published 2003)", "test": "Spray drying of solutions; particle geometric diameter and hollow/solid structure by photomicrograph", "assay_type": "physicochemical", "details": "for Geometric Diameter (average particle diameter) / Hollow or Solid: spray dried particles from aqueous solution; for Geometric Diameter (average particle diameter): VIRTIS spray dryer; for Hollow or Solid: photomicrographs", "method": "Medicament powder of each of the two medicaments, albuterol sulfate and amiloride HCl (abbreviated herein as Alb S and Amil HCl, respectively), is employed in this example. Also, the excipient, lactose, is employed in this example. Aliquots of each of the medicaments, and also of lactose, are spray dried as follows.\n15 g of Alb S (lot no. W 1946 FB) are dissolved in 300 ml of water to create a 5% solution. Similarly, 3.479 g of Amil HCl (lot no. 9007H 902) are diluted in water to 1000 ml to create a solution. Likewise, 15 g of lactose (lot no. 1NC25, 605 from Sheffield Products of Norwich, N.Y.) are diluted in water to 150 ml to create a solution.\nEach solution is respectively spray dried using a VIRTIS™ (a spray dryer commercially available from The Virtis Company of Gardiner, N.Y.) with each of the air from the nozzle and from the blower set at its respective maximum value under the following conditions of temperature and rate, as summarized in Table A below: […]", "note": "“Also recorded” adds a separate entry of the source. Counter-ions that a name gives are not always drawn.", "data": [{"compound": "N=C(N)NC(=O)c1nc(Cl)c(N)nc1N", "note": "[Amil HCl, amiloride HCl]", "values": [{"measurement": "Geometric Diameter (average particle diameter)", "result": "1 to 5", "unit": "μm"}, {"measurement": "Hollow or Solid", "setting": "HCl", "result": "spherical hollow particulates; also recorded: hollow spheres"}]}, {"compound": "OC[C@H]1O[C@@H](O[C@H]2[C@H](O)[C@@H](O)C(O)O[C@@H]2CO)[C@H](O)[C@@H](O)[C@H]1O", "note": "(some centres unmarked) [Lactose, lactose]", "values": [{"measurement": "Geometric Diameter (average particle diameter)", "result": 2, "unit": "μm"}, {"measurement": "Hollow or Solid", "result": "hollow spheres"}, {"measurement": "Hollow or Solid", "setting": "listed as lactose", "result": "spherical hollow particulates"}, {"measurement": "average particle diameter of the largest particulate", "setting": "spray dried, photomicrographs FIGS. 6 and 7", "result": "about 17 μm"}]}, {"compound": "albuterol sulfate [Alb S]", "values": [{"measurement": "Geometric Diameter (average particle diameter)", "result": "1 to 5", "unit": "μm"}, {"measurement": "Hollow or Solid", "result": "dimpled solid structures; also recorded: dimpled solids"}]}]}
